Results from patent US12338243B2, “P2X7 modulators” (JANSSEN PHARMACEUTICA NV, priority 2014, dated 2025).

Legend:
rat P2X7 = target: T1, rat P2X7 (Rattus norvegicus, UniProt Q64663); test: Ca2+ flux (FLIPR) in 1321N1 cells expressing recombinant rat P2X7 channel; settings: FLIPR (rat) IC50 (μM), 250 μM BzATP
T1 sequence (Q64663 1-595): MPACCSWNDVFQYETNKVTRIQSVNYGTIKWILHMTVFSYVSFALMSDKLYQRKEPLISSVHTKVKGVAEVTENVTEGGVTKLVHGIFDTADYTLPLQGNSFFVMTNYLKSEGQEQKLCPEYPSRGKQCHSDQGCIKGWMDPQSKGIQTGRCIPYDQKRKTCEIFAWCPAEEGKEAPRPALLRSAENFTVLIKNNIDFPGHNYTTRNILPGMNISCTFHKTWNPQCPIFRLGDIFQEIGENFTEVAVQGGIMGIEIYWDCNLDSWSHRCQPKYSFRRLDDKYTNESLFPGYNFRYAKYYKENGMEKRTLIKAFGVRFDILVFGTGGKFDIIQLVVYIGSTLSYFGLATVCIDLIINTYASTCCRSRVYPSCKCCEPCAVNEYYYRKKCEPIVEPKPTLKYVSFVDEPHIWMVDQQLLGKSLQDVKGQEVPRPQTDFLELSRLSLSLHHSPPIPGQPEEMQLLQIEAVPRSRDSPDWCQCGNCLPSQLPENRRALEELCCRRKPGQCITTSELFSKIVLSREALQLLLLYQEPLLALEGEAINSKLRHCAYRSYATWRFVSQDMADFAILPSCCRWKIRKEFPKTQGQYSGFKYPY

[1] = Biodistribution studies of radiotracer in healthy female Wistar rats; type: in vivo; settings: for % ID blood: blood mass assumed 7% of body mass; for SUV blood / % ID carcass / % ID cerebellum / SUV cerebellum / % ID cerebrum / SUV cortex / % ID heart / SUV hippocampus / % ID intestines / % ID kidneys / % ID liver / % ID lungs / SUV rest of cerebrum / % ID spleen + pancreas / % ID stomach / SUV striatum / % ID urine / SUV whole cerebrum: mean ± SD, n = 3; for % ID bone: calculated to estimated total bone tissue (% ID/g bone * body mass* 0.12)
Method: HPLC analysis was performed on a LaChrom Elite HPLC system (Hitachi, Armstadt, Germany) connected to a UV spectrometer set at 220 nm. For the analysis of radiolabeled compounds, the HPLC eluate, after passage through the UV detector, was led over a shielded 3-inch NaI(Tl) scintillation detector connected to a multichannel analyser (Gabi box, Raytest, Straubenhardt, Germany). The output signal was recorded and analysed using a GINA Star data acquisition system (Raytest, Straubenhardt, Germany). Radioactivity in samples of biodistribution studies, cell uptake experiments and radiometabolite analysis was quantified using an automated gamma counter equipped with a 3-inch NaI(Tl) well crystal coupled to a multichannel analyser (Wallac 2480 Wizard, Wallac, Turku, Finland). Results were corrected for background radiation, physical decay and counter dead time.
Animals were housed in individually ventilated cages in a thermoregulated (˜22° C.), humidity-controlled facility under a 12 h/12 h light/dark cycle with access to food and water ad libitum. All animal experiments were conducted according to the Belgian code of practice for the care and use of animals, after approval from the KU Leuven University Ethics Committee for Animals.
The biodistribution studies were performed in healthy female Wistar rats (body weight, 185-220 g) at 2, 30 and 60 min after tracer injection (n=3/time point). […] The animals were sacrificed by decapitation at the indicated time points. Blood and major organs were collected in tared tubes and weighed. The radioactivity in the dissected organs and blood was counted using an automated gamma counter. For calculation of total blood radioactivity, blood mass was assumed to be 7% of the body mass.

CC1c2nnc(-c3ccccn3)n2CCN1C(=O)c1cccc(Cl)c1Cl (stereo not drawn) [Example 1, (2,3-dichlorophenyl)(8-methyl-3-(pyridin-2-yl)-5,6-dihydro-[1,2,4]triazolo[4,3-a]pyrazin-7(8H)-yl)methanone]
IC50 (rat P2X7): 1.21 µM

C[C@H]1Cn2c(nnc2-c2ccc(F)cc2F)CN1C(=O)c1cccc(Cl)c1Cl [Example 50, (S)-(2,3-dichlorophenyl)(3-(2,4-difluorophenyl)-6-methyl-5,6-dihydro-[1,2,4]triazolo[4,3-a]pyrazin-7(8H)-yl)methanone]
IC50 (rat P2X7): 1.68 µM

C[C@H]1Cn2c(nnc2-c2ncc(F)cn2)CN1C(=O)c1cccc(C(F)(F)F)c1Cl [Example 74]
IC50 (rat P2X7): 0.0101 µM

C[C@H]1Cn2c(nnc2-c2cc([18F])ccn2)CN1C(=O)c1cccc(Cl)c1Cl [[^18F]68, (S)-(2,3-dichlorophenyl)(3-(4-[^18F]fluoropyridin-2-yl)-6-methyl-5,6-dihydro-[1,2,4]triazolo[4,3-a]pyrazin-7(8H)-yl)methanone]
% ID blood ([1]; 2 min after tracer injection): 6.8 ± 0.6 % ID | SUV blood ([1]; 2 min after tracer injection): 0.97 ± 0.08 | % ID blood ([1]; 30 min after tracer injection): 4.3 ± 0.3 % ID | SUV blood ([1]; 30 min after tracer injection): 0.61 ± 0.04 | % ID blood ([1]; 60 min after tracer injection): 2.0 ± 0.5 % ID | SUV blood ([1]; 60 min after tracer injection): 0.29 ± 0.07 | % ID bone ([1]; 2 min): 8.8 ± 0.8 % ID | % ID bone ([1]; 30 min): 44.5 ± 3.8 % ID | % ID bone ([1]; 60 min): 64.5 ± 5.9 % ID | % ID carcass ([1]; 2 min after tracer injection): 40.8 ± 0.8 % ID | % ID carcass ([1]; 30 min after tracer injection): 56.6 ± 2.8 % ID | % ID carcass ([1]; 60 min after tracer injection): 60.4 ± 2.3 % ID | % ID cerebellum ([1]; 2 min after tracer injection): 0.1 ± 0.0 % ID | SUV cerebellum ([1]; 2 min after tracer injection): 1.21 ± 0.22 | % ID cerebellum ([1]; 30 min after tracer injection): 0.0 ± 0.0 % ID | SUV cerebellum ([1]; 30 min after tracer injection): 0.33 ± 0.07 | % ID cerebellum ([1]; 60 min after tracer injection): 0.0 ± 0.0 % ID | SUV cerebellum ([1]; 60 min after tracer injection): 0.38 ± 0.08 | % ID cerebrum ([1]; 2 min after tracer injection): 0.6 ± 0.0 % ID | % ID cerebrum ([1]; 30 min after tracer injection): 0.1 ± 0.0 % ID | % ID cerebrum ([1]; 60 min after tracer injection): 0.1 ± 0.0 % ID | SUV cortex ([1]; 2 min after tracer injection): 1.27 ± 0.13 | SUV cortex ([1]; 30 min after tracer injection): 0.94 ± 0.29 | SUV cortex ([1]; 60 min after tracer injection): 0.69 ± 0.17 | % ID heart ([1]; 2 min after tracer injection): 0.9 ± 0.1 % ID | % ID heart ([1]; 30 min after tracer injection): 0.2 ± 0.0 % ID | % ID heart ([1]; 60 min after tracer injection): 0.1 ± 0.0 % ID | SUV hippocampus ([1]; 2 min after tracer injection): 1.11 ± 0.10 | SUV hippocampus ([1]; 30 min after tracer injection): 0.23 ± 0.04 | SUV hippocampus ([1]; 60 min after tracer injection): 0.19 ± 0.03 | % ID intestines ([1]; 2 min after tracer injection): 10.6 ± 2.1 % ID | % ID intestines ([1]; 30 min after tracer injection): 20.9 ± 6.0 % ID | % ID intestines ([1]; 60 min after tracer injection): 11.2 ± 0.6 % ID | % ID kidneys ([1]; 2 min after tracer injection): 3.3 ± 0.5 % ID | % ID kidneys ([1]; 30 min after tracer injection): 1.1 ± 0.2 % ID | % ID kidneys ([1]; 60 min after tracer injection): 0.9 ± 0.1 % ID | % ID liver ([1]; 2 min after tracer injection): 34.6 ± 2.4 % ID | % ID liver ([1]; 30 min after tracer injection): 7.5 ± 0.6 % ID | % ID liver ([1]; 60 min after tracer injection): 3.61 ± 0.3 % ID | % ID lungs ([1]; 2 min after tracer injection): 1.6 ± 0.1 % ID | % ID lungs ([1]; 30 min after tracer injection): 0.7 ± 0.1 % ID | % ID lungs ([1]; 60 min after tracer injection): 0.6 ± 0.2 % ID | SUV rest of cerebrum ([1]; 2 min after tracer injection): 1.20 ± 0.11 | SUV rest of cerebrum ([1]; 30 min after tracer injection): 0.31 ± 0.06 | SUV rest of cerebrum ([1]; 60 min after tracer injection): 0.25 ± 0.04 | % ID spleen + pancreas ([1]; 2 min after tracer injection): 1.3 ± 0.2 % ID | % ID spleen + pancreas ([1]; 30 min after tracer injection): 0.3 ± 0.1 % ID | % ID spleen + pancreas ([1]; 60 min after tracer injection): 0.2 ± 0.0 % ID | % ID stomach ([1]; 2 min after tracer injection): 1.5 ± 0.5 % ID | % ID stomach ([1]; 30 min after tracer injection): 1.6 ± 0.9 % ID | % ID stomach ([1]; 60 min after tracer injection): 10.7 ± 3.3 % ID | SUV striatum ([1]; 2 min after tracer injection): 1.19 ± 0.13 | SUV striatum ([1]; 30 min after tracer injection): 0.24 ± 0.05 | SUV striatum ([1]; 60 min after tracer injection): 0.19 ± 0.03 | % ID urine ([1]; 2 min after tracer injection): 0.1 ± 0.0 % ID | % ID urine ([1]; 30 min after tracer injection): 8.4 ± 1.8 % ID | % ID urine ([1]; 60 min after tracer injection): 8.4 ± 1.8 % ID | SUV whole cerebrum ([1]; 2 min after tracer injection): 1.20 ± 0.11 | SUV whole cerebrum ([1]; 30 min after tracer injection): 0.31 ± 0.06 | SUV whole cerebrum ([1]; 60 min after tracer injection): 0.25 ± 0.04
